The experiment has as its system melanoma cells (D10). Put plainly: Membrane turnover assay (FM1-43 uptake by FACS in CTL/target cell conjugates). Particulars: D10 cells loaded with antigenic peptide, pretreated 2 h with 50 μM BAPTA-AM, alone or after 5 min conjugation with CTL; compared with untreated cells. Type of experiment: cell-based, human. The procedure: Loading of target cells: Target cells were left unpulsed or pulsed with 10 μM antigenic peptide during 2 h at 37° C./5% CO2. Cells were washed three times, re-suspended at 15×10^3 to 30×10^3 cells in 25 μl RPMI/5% FCS/HEPES and transferred to a 96-well U-bottom plate.
In some experiments, D10 cells were pretreated (2 h) or not with 50 μM BAPTA-AM (ThermoFisher Scientific).
CTL staining: CTL were stained with 10 μM CellTrace Violet (CTV, ThermoFisher Scientific) for 30 min at 37° C./5% CO2, washed three times and re-suspended at 30×10^3 to 60×10^3 cells per 25 μl RPMI/5% FCS/HEPES.
Conjugation of CTL and target cells: 25 μl of CTL (previously stained with CTV) were added in wells containing pulsed or unpulsed target cells at 2:1 CTL/target cell ratio. Target cells were previously added to three 96-U-bottom plates (one plate per time point: 2, 5 or 15 minutes). A pre-diluted solution of FM1-43 (ThermoFisher Scientific) was prepared at 20 μg/ml. 50 μl of this solution were added to wells containing in 50 μl the cells of interest to have a final concentration of 10 μg/ml. The FM1-43 solution was added to wells at the same time of CTL. Cells were pelleted during 1 minute at 455 g and incubated at 37° C./5% CO2 for 2, 5 or 15 minutes.
At the end of the incubation time, 100 μl cold FACS buffer (PBS 1% FBS 1% HS 0.1% azide) supplemented with 0.5 mM EDTA were added to each well on ice. […]
Background: Flow cytometry measures light scatter and fluorescence of single cells or particles in a stream.

Each structure is given as a SMILES string.

The values below come from patent publication US20220018828A1, “METHODS AND KIT FOR ASSAYING LYTIC POTENTIAL OF IMMUNE EFFECTOR CELLS” (INSERM (INSTITUT NATIONAL DE LA SANTÉ ET LA RECHERCHE …, priority 2018, published 2022).

For the compound `CC(=O)OCOC(=O)CN(CC(=O)OCOC(C)=O)c1ccccc1OCCOc1ccccc1N(CC(=O)OCOC(C)=O)CC(=O)OCOC(C)=O` [BAPTA-AM], the “FM1-43 uptake (fluorescence intensity) in melanoma cells” value is “decrease of FM1-43 uptake”.
